Experimental data from patent US20200131196A1 (Mount Tam Therapeutics, Inc., priority 2017, published 2020).
Where two headings read alike, the source gives them in different places.

How the values were obtained:
OVCAR3 = assay: OncoPanel cell proliferation assay, OVCAR3
Experimental: Cells were seeded into 384-well plates and incubated in a humidified atmosphere of 5% CO2 at 37° C. Compounds were added the day following cell seeding. At the same time, a time zero untreated cell plate was generated. After a 3-day incubation period, cells were fixed and stained to allow fluorescence imaging of nuclei. Compounds (1 mM stock solutions) were serially diluted in half-log steps from the highest test concentration (1 micromol), and assayed over 10 concentrations with a maximum assay concentration of 0.1% DMSO. Automated fluorescence microscopy was carried out using a Molecular Devices ImageXpress Micro XL high-content imager, and images were collected with a 4× objective. 16-bit TIFF images were acquired and analyzed with MetaXpress 5.1.0.41 software.

SW579 = assay: OncoPanel cell proliferation assay, SW579; assay type: cell-based, human
Experimental: (§1) Cells were grown in RPMI 1640, 10% FBS, 2 mM L-alanyl-L-glutamine, 1 mM Na pyruvate, or a special medium. Cells were seeded into 384-well plates and incubated in a humidified atmosphere of 5% CO2 at 37° C. Compounds were added the day following cell seeding. At the same time, a time zero untreated cell plate was generated. After a 3-day incubation period, cells were fixed and stained to allow fluorescence imaging of nuclei. Compounds (1 mM stock solutions) were serially diluted in half-log steps from the highest test concentration ([…]), and assayed over 10 concentrations with a maximum assay concentration of 0.1% DMSO. Automated fluorescence microscopy was carried out using a Molecular Devices ImageXpress Micro XL high-content imager, and images were collected with a 4× objective. 16-bit TIFF images were acquired and analyzed with MetaXpress 5.1.0.41 software.
(§2) Cell proliferation was measured by the fluorescence intensity of an incorporated nuclear dye. The output is referred to as the relative cell count, where the measured nuclear intensity is transformed to percent of control (POC) using the following formula: […]
(§3) Cellular response parameters were calculated using nonlinear regression to a sigmoidal single-site dose response model:
(§4) EC50 is the test compound concentration at the curve inflection point or half the effective response (parameter C of the fitted curve solution). GI50 is the concentration needed to reduce the observed growth by half (midway between the curve maximum and the time zero value). “Cell Count Activity Area” is an estimate of the integrated area above the curve (Barretina, et al. The Cancer Cell Line Encyclopedia enables predictive modelling of anticancer drug sensitivity. Nature 483: 603-607). […] In rare instances, values <0 or >10 may be observed. […] Curve-fitting, calculations, and report generation was performed using a custom data reduction engine and MathIQ based software (AIM).

TF-1 = assay: OncoPanel cell proliferation assay, TF-1; assay type: cell-based, human
Experimental: as §1, §2, §3, §4

U2OS = assay: OncoPanel cell proliferation assay, U2OS; assay type: cell-based, human
Experimental: as §1, with “Cells” for “Cells were grown in RPMI 1640, 10% FBS, 2 mM L-alanyl-L-glutamine, 1 mM Na pyruvate, or a special medium. Cells”
as §2, §3
GI50 is the concentration needed to reduce the observed growth by half (midway between the curve maximum and the time zero value). […] In rare instances, values <0 or >10 may be observed. […] Curve-fitting, calculations, and report generation was performed using a custom data reduction engine and MathIQ based software (AIM).

A101D = assay: OncoPanel cell proliferation assay, A101D; assay type: cell-based, human
Experimental: as §1, §2, §3, §4

SNU-C2B = assay: OncoPanel cell proliferation assay, SNU-C2B; assay type: cell-based, human
Experimental: as §1, §2, §3, §4

[1] = Homo sapiens, read-out: Cell Count EC50
[2] = Homo sapiens, read-out: Cell Count GI50
[3] = Homo sapiens, read-out: Cell Count IC50

For CO[C@H]1C[C@@H]2CC[C@@H](C)[C@@](O)(O2)C(=O)C(=O)N2CCCC[C@H]2C(=O)O[C@H]([C@H](C)C[C@H]2C[C@H]3C[C@@H]2C[C@@H]3O)CC(=O)[C@H](C)/C=C(\C)[C@@H](O)[C@@H](OC)C(=O)[C@H](C)C[C@H](C)/C=C/C=C/C=C/1C [Formula II, C37-[(1R,2S,4R,5S)-5-hyhroxybicyclo[2.2.1]heptane] rapamycin], the EC50 (OVCAR3; Homo sapiens) was 0.043 µM, the EC50 (OVCAR3; Homo sapiens, OVCAR-3, read-out: Cell Count EC50) was 0.0426 µM and the GI50 (OVCAR3; Homo sapiens, OVCAR-3, read-out: Cell Count GI50) was 0.301 µM. The IC50 (OVCAR3; Homo sapiens, OVCAR-3, read-out: Cell Count IC50) was over 1 µM, the “Cell Count Activity Area” value (OVCAR3; OVCAR3) was 1.09 and the “Relative cell count (%) Mean” value (OVCAR3; OVCAR3, 1.00E+00 microM) was 70.8%. For the same molecule, the “Relative cell count (%) Mean” value (OVCAR3; OVCAR3, 1.00E-01 microM) was 79.0%, the “Relative cell count (%) Mean” value (OVCAR3; OVCAR3, 1.00E-02 microM) was 104.2% and the “Relative cell count (%) Mean” value (OVCAR3; OVCAR3, 1.00E-03 microM) was 101.9%. The “Relative cell count (%) Mean” value (OVCAR3; OVCAR3, 1.01E-04 microM) was 116.6%, the “Relative cell count (%) Mean” value (OVCAR3; OVCAR3, 3.16E-01 microM) was 69.1% and the “Relative cell count (%) Mean” value (OVCAR3; OVCAR3, 3.17E-02 microM) was 88.4%. The “Relative cell count (%) Mean” value (OVCAR3; OVCAR3, 3.17E-03 microM) was 98.5%, the “Relative cell count (%) Mean” value (OVCAR3; OVCAR3, 3.18E-04 microM) was 100.4% and the “Relative cell count (%) Mean” value (OVCAR3; OVCAR3, 3.18E-05 microM) was 99.9%. For the same molecule, the “Cell Count Activity Area” value (SW579) was 4.51, the “Relative cell count (%) Mean” value (SW579; 1.00E+00 microM) was 43.1% and the “Relative cell count (%) Mean” value (SW579; 1.00E-01 microM) was 43.4%. For the same molecule, the “Relative cell count (%) Mean” value (SW579; 1.00E-02 microM) was 51.1%, the “Relative cell count (%) Mean” value (SW579; 1.00E-03 microM) was 64.1% and the “Relative cell count (%) Mean” value (SW579; 1.01E-04 microM) was 82.8%. For the same molecule, the “Relative cell count (%) Mean” value (SW579; 3.16E-01 microM) was 40.8%, the “Relative cell count (%) Mean” value (SW579; 3.17E-02 microM) was 49.9% and the “Relative cell count (%) Mean” value (SW579; 3.17E-03 microM) was 50.2%. The “Relative cell count (%) Mean” value (SW579; 3.18E-04 microM) was 66.2%, the “Relative cell count (%) Mean” value (SW579; 3.18E-05 microM) was 86.0% and the EC50 (SW579; [1]) was 0.000204 µM. The GI50 (SW579; [2]) was 0.00106 µM, the IC50 (SW579; [3]) was 0.00452 µM and the “Cell Count Activity Area” value (TF-1) was 1.08. The “Relative cell count (%) Mean” value (TF-1; 1.00E+00 microM) was 80.8%, the “Relative cell count (%) Mean” value (TF-1; 1.00E-01 microM) was 80.1% and the “Relative cell count (%) Mean” value (TF-1; 1.00E-02 microM) was 82.8%. For the same molecule, the “Relative cell count (%) Mean” value (TF-1; 1.00E-03 microM) was 88.7%, the “Relative cell count (%) Mean” value (TF-1; 1.01E-04 microM) was 93.1% and the “Relative cell count (%) Mean” value (TF-1; 3.16E-01 microM) was 79.6%. The “Relative cell count (%) Mean” value (TF-1; 3.17E-02 microM) was 81.7%, the “Relative cell count (%) Mean” value (TF-1; 3.17E-03 microM) was 80.8% and the “Relative cell count (%) Mean” value (TF-1; 3.18E-04 microM) was 89.0%. For the same molecule, the “Relative cell count (%) Mean” value (TF-1; 3.18E-05 microM) was 94.4%, the EC50 (TF-1; [1]) was over 1 µM and the GI50 (TF-1; [2]) was over 1 µM. For the same molecule, the IC50 (TF-1; [3]) was over 1 µM, the “Cell Count Activity Area” value (U2OS) was 2.61 and the “Relative cell count (%) Mean” value (U2OS; 1.00E+00 microM) was 49.8%. For the same molecule, the “Relative cell count (%) Mean” value (U2OS; 1.00E-01 microM) was 51.6%, the “Relative cell count (%) Mean” value (U2OS; 1.00E-02 microM) was 66.4% and the “Relative cell count (%) Mean” value (U2OS; 1.00E-03 microM) was 78.8%. For the same molecule, the “Relative cell count (%) Mean” value (U2OS; 1.01E-04 microM) was 98.9%, the “Relative cell count (%) Mean” value (U2OS; 3.16E-01 microM) was 47.3% and the “Relative cell count (%) Mean” value (U2OS; 3.17E-02 microM) was 56.3%. The “Relative cell count (%) Mean” value (U2OS; 3.17E-03 microM) was 81.3%, the “Relative cell count (%) Mean” value (U2OS; 3.18E-04 microM) was 98.6% and the “Relative cell count (%) Mean” value (U2OS; 3.18E-05 microM) was 92.7%. It also gave an EC50 (U2OS; [1]) of 0.0054 µM, a GI50 (U2OS; [2]) of 0.035 µM and an IC50 (U2OS; [3]) of 0.324 µM. For the same molecule, the “Cell Count Activity Area” value (A101D) was 3.79, the “Relative cell count (%) Mean” value (A101D; 1.00E+00 microM) was 52.5% and the “Relative cell count (%) Mean” value (A101D; 1.00E-01 microM) was 54.3%. For the same molecule, the “Relative cell count (%) Mean” value (A101D; 1.00E-02 microM) was 62.0%, the “Relative cell count (%) Mean” value (A101D; 1.00E-03 microM) was 75.1% and the “Relative cell count (%) Mean” value (A101D; 1.01E-04 microM) was 96.5%. The “Relative cell count (%) Mean” value (A101D; 3.16E-01 microM) was 59.6%, the “Relative cell count (%) Mean” value (A101D; 3.17E-02 microM) was 56.2% and the “Relative cell count (%) Mean” value (A101D; 3.17E-03 microM) was 71.5%. For the same molecule, the “Relative cell count (%) Mean” value (A101D; 3.18E-04 microM) was 82.7%, the “Relative cell count (%) Mean” value (A101D; 3.18E-05 microM) was 100.8% and the EC50 (A101D; [1]) was 0.000366 µM. For the same molecule, the GI50 (A101D; [2]) was 0.00136 µM, the IC50 (A101D; [3]) was 0.0562 µM and the “Cell Count Activity Area” value (SNU-C2B) was 2.73. The “Relative cell count (%) Mean” value (SNU-C2B; 1.00E+00 microM) was 74.9%, the “Relative cell count (%) Mean” value (SNU-C2B; 1.00E-01 microM) was 76.2% and the “Relative cell count (%) Mean” value (SNU-C2B; 1.00E-02 microM) was 79.1%. For the same molecule, the “Relative cell count (%) Mean” value (SNU-C2B; 1.00E-03 microM) was 74.1%, the “Relative cell count (%) Mean” value (SNU-C2B; 1.01E-04 microM) was 97.1% and the “Relative cell count (%) Mean” value (SNU-C2B; 3.16E-01 microM) was 66.6%. The “Relative cell count (%) Mean” value (SNU-C2B; 3.17E-02 microM) was 69.5%, the “Relative cell count (%) Mean” value (SNU-C2B; 3.17E-03 microM) was 76.3% and the “Relative cell count (%) Mean” value (SNU-C2B; 3.18E-04 microM) was 88.6%. For the same molecule, the “Relative cell count (%) Mean” value (SNU-C2B; 3.18E-05 microM) was 106.6%, the EC50 (SNU-C2B; [1]) was 0.000179 µM and the GI50 (SNU-C2B; [2]) was 0.00316 µM. For the same molecule, the IC50 (SNU-C2B; [3]) was over 1 µM.
